This note sets out measurements from US9498467B2, “Treatment of chronic neutrophilic leukemia (CNL) and atypical chronic myeloid leukemia (aCML) by inhibitors of JAK1” (Incyte Corporation, priority 2014, dated 2016).

pIC50: −log10 of the molar value.

Assay [1] deals with T1, human JAK1 (a.a. 837-1142) (Homo sapiens, UniProt P23458).
T1 construct: human JAK1 (a.a. 837-1142); made in house; host or cells: insect cells (baculovirus)
In words: In vitro JAK kinase assay (HTRF), JAK1. The assay is classed as biochemical. The conditions noted are these: 1 mM ATP. Background: In TR-FRET formats the signal depends on donor and acceptor labels being close together.

For assay [2], the target named is T2, human JAK2 (a.a. 828-1132) (Homo sapiens, UniProt O60674).
T2 construct: JAK2 (a.a. 828-1132); made in house; host or cells: insect cells (baculovirus)
T2 sequence (O60674 828-1132): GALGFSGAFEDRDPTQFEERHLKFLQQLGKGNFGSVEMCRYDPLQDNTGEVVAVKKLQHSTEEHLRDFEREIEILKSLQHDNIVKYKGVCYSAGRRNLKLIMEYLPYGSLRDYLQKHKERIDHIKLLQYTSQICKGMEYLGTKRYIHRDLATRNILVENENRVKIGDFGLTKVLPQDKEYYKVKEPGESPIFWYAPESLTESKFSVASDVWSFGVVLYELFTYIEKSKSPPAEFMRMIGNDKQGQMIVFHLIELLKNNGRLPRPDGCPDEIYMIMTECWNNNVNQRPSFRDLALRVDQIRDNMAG
In words: In vitro JAK kinase assay (HTRF), JAK2. The class given is biochemical. To be noted: ratio of IC50s at 1 mM ATP.

T1 sequence (P23458 849-1154): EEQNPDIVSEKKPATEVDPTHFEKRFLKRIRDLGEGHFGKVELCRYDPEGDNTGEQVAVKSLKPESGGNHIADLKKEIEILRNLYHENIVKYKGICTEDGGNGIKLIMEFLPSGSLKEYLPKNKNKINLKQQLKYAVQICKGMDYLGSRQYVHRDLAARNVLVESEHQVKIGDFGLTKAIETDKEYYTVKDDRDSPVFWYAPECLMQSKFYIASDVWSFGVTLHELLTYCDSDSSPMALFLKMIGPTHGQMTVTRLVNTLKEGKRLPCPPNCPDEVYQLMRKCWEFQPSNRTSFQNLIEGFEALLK

As to `N#CCC(C1CCN(c2cccc(Cl)n2)C1)n1cc(-c2ncnc3[nH]ccc23)cn1` (single isomer, unassigned) [Compound 3, 3-[1-(6-chloropyridin-2-yl)pyrrolidin-3-yl]-3-[4-(7H-pyrrolo[2,3-d]pyrimidin-4-yl)-1H-pyrazol-1-yl]propanenitrile], the pIC50 in assay [1] was > 8.00. Further, the JAK2/JAK1 in assay [2] is listed as >10.
On the same counts, the results for `N#CCC(C1CCN(c2nc3cccnc3o2)C1)n1cc(-c2ncnc3[nH]ccc23)cn1` (stereo not drawn) [Compound 4, 3-(1-[1,3]oxazolo[5,4-b]pyridin-2-ylpyrrolidin-3-yl)-3-[4-(7H-pyrrolo[2,3-d]pyrimidin-4-yl)-1H-pyrazol-1-yl]propanenitrile] are > 8.00 and >10.
On the same counts, the results for `N#CCC(CN1CCN(C(=O)c2ccc(C#N)cc2F)CC1)n1cc(-c2ncnc3[nH]ccc23)cn1` (stereo not drawn) [Compound 5] are > 8.00 and >10.
For `N#CCC(CN1CCN(C(=O)c2ccc(C#N)cc2F)CC1)n1ccc(-c2ncnc3[nH]ccc23)c1` (stereo not drawn) [Compound 6, 4-[(4-{3-cyano-2-[3-(7H-pyrrolo[2,3-d]pyrimidin-4-yl)-1H-pyrrol-1-yl]propyl}piperazin-1-yl)carbonyl]-3-fluorobenzonitrile], in that order: > 8.00 and >10.
Regarding `N#CCC1(n2cc(-c3ncnc4[nH]ccc34)cn2)CN(C2CCN(C(=O)Nc3ccc(F)cc3C(F)(F)F)CC2)C1` [Compound 8, 4-{3-(Cyanomethyl)-3-[4-(7H-pyrrolo[2,3-d]pyrimidin-4-yl)-1H-pyrazol-1-yl]azetidin-1-yl}-N-[4-fluoro-2-(trifluoromethyl)phenyl] piperidine-1-carboxamide], the pIC50 in assay [1] is > 8.00. Further, the JAK2/JAK1 in assay [2] is >10.
On the same counts, the results for `N#CCC1(n2cc(-c3ncnc4[nH]ccc34)cn2)CN(C2CCN(C(=O)c3ccnc(C(F)(F)F)n3)CC2)C1` [Compound 9, [3-[4-(7H-pyrrolo[2,3-d]pyrimidin-4-yl)-1H-pyrazol-1-yl]-1-(1-{[2-(trifluoromethyl)pyrimidin-4-yl]carbonyl}piperidin-4-yl)azetidin-3-yl]acetonitrile] are > 8.00 and >10.
On the same counts, the results for `N#CC[C@]1(n2cc(-c3ncnc4[nH]ccc34)cn2)C[C@H](N2CCN(C(=O)c3ccnc(C(F)(F)F)n3)CC2)C1` [Compound 10, [trans-1-[4-(7H-pyrrolo[2,3-d]pyrimidin-4-yl)-1H-pyrazol-1-yl]-3-(4-{[2-(trifluoromethyl)pyrimidin-4-yl]carbonyl}piperazin-1-yl)cyclobutyl] acetonitrile] are > 8.00 and >10.
Consider `N#CC[C@]1(n2cc(-c3ncnc4[nH]ccc34)cn2)C[C@H](N2CCC(Oc3cc(CN4CC(O)C4)cc(C(F)(F)F)n3)CC2)C1` [Compound 11, {trans-3-(4-{[4-[(3-hydroxyazetidin-1-yl)methyl]-6-(trifluoromethyl)pyridin-2-yl]oxy}piperidin-1-yl)-1-[4-(7H-pyrrolo[2,3-d]pyrimidin-4-yl)-1H-pyrazol-1-yl]cyclobutyl} acetonitrile], for which the negative logarithm of the IC50 (pIC50) in assay [1] was > 8.00. Further, in assay [2], the JAK2/JAK1 is >10.
On the same counts, the results for `N#CC[C@]1(n2cc(-c3ncnc4[nH]ccc34)cn2)C[C@H](N2CCC(Oc3cc(CN4CCC[C@H]4CO)cc(C(F)(F)F)n3)CC2)C1` [Compound 12, {trans-3-(4-{[4-{[(2S)-2-(hydroxymethyl)pyrrolidin-1-yl]methyl}-6-(trifluoromethyl)pyridin-2-yl]oxy}piperidin-1-yl)-1-[4-(7H-pyrrolo[2,3-d]pyrimidin-4-yl)-1H-pyrazol-1-yl]cyclobutyl} acetonitrile] are > 8.00 and >10.

The term pIC50 denotes the IC50 on a negative log10 scale, so that one unit is a factor of ten. Read a high pIC50 as a low IC50.
